IC50 data for two compounds are collected here from patent publication US20090318468A1, “PYRAZOLE COMPOUNDS 436” (AstraZeneca AB, priority 2008, published 2009).

Several values for one entry are separate records, joined by “and”; a condition that tells them apart may be missing. Equal entries are not always repeated.

Broadly, the IC50 is the concentration at which inhibition is half-maximal.

The target of assay [1] is T1, human cytochrome P450 (CYP) 2C19 (Homo sapiens, UniProt P33261).
T1 construct: made in house; host or cells: yeast (microsomal fraction)
T1 sequence (P33261 whole entry): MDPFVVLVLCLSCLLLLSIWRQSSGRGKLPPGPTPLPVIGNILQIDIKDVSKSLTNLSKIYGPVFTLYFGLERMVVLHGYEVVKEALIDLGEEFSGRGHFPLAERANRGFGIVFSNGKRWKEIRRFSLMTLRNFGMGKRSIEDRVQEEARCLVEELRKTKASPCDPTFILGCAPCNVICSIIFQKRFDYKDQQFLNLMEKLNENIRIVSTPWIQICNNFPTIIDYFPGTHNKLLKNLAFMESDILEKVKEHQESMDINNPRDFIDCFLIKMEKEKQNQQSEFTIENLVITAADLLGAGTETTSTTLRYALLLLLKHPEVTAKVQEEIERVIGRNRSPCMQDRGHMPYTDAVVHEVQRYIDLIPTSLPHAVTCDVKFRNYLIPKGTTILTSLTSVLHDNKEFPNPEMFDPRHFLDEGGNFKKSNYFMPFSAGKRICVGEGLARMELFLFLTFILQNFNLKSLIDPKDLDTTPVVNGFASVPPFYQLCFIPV
Briefly: Cytochrome P450 Inhibition Assay, CYP 2C19. It is filed as in vitro ADME. Conditions: test compound 0.1-10 μM, substrate MFC; read-out: Ic50 2C19. As for the experimental part: Cytochrome P450 Inhibition Assay
The inhibitory potential (IC50) of test compounds against 5 human cytochrome P450 (CYP) isoforms (1A2, 2C9, 2C19, 3A4 and 2D6) was assessed using an automated fluorescent end point in vitro assay modified from Crespi (Crespi and Stresser, J Pharmacol Toxicol Methods 2000, 44: 325-331). Microsomal subcellular fractions prepared from Yeast cell lines expressing each human CYP isoform were used as an enzyme source in this assay. The activity of the 5 major human CYPs was determined from the biotransformation of a number of coumarin substrates to fluorescent metabolites, in the presence of NADPH. […] Stock solutions of each CYP, with its respective substrate, were prepared in phosphate buffer pH 7.4 (see Table 1) and 178 μl was added to the well of a black solid, flat bottom, 300 μl 96 well microtitre plate (Corning Costar). […] After pre-incubating at 37° C. for 5 min the reactions were started with addition of NADPH (20 μl, concentration shown in Table 1). The final solvent content in each incubation was <=2% (1% from the test compound and a maximum of 1% from the substrate). The appropriate solvent controls and substrate blanks were included in each experiment to assess control activity and identify any inherent fluorescence due to the test compounds. In addition, known inhibitors of each CYP were included as positive controls (see Table 3 for inhibitor concentrations and expected IC50 ranges). The reactions were stopped at defined timepoints (see Table 1) by quenching with 100 μl of solvent (acetonitrile:0.5M Tris buffer 80:20 v/v). The plates were read on a fluorimeter (Spectrafluor Plus) at the appropriate excitation and emission wavelengths (listed in Table 2) and the percent activity, corrected for control, was plotted against the test compound concentration.

For another assay, the target named is FGFR4 (Homo sapiens, UniProt P22455). As to the kind of experiment: FGFR4 Kinase Assay - Caliper. Format: biochemical. The conditions noted are these: 30 μM ATP, separate test occasions listed, read-out: IC50 (inhibition of FGFR4 kinase activity). As for the experimental part: FGFR4 Kinase Assay—Caliper
Sequence of FGFR4 (P22455 22-802): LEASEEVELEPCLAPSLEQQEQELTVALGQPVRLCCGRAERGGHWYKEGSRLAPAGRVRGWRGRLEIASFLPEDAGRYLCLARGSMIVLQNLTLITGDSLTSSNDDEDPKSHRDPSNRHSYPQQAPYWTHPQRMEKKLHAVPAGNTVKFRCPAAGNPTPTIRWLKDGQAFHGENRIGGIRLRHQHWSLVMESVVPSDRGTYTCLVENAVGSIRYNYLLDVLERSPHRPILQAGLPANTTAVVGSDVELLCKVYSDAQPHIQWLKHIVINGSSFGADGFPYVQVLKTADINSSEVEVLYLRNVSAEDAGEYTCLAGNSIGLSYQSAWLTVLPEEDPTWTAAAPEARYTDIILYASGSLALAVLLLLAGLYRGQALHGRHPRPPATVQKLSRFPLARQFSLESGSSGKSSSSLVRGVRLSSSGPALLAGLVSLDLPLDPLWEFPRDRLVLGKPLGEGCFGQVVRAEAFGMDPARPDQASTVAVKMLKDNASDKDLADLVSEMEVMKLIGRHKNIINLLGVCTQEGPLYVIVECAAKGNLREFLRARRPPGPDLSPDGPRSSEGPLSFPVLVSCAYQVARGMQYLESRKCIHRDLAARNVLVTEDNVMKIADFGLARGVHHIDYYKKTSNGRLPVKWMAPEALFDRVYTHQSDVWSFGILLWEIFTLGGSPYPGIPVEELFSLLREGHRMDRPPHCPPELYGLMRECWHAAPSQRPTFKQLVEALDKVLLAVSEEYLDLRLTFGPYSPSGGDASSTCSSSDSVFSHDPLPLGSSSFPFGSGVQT
To determine inhibition of FGFR4 activity, kinase assays were conducted using Caliper technology. FGFR4 enzyme was used (8 μM, Cat. No. PR4380B, Invitrogen). Kinase activity assays were performed in Greiner 384-well low volume plates, with a total reaction volume of 12 μL per well. The final concentration of FGFR4 active kinase in each reaction well was 25 nM. The substrate for each assay was a custom peptide with fluorescent tag (13 amino acids in length, 5FAM-[…]—CONH2) the sequence of which was specific for FGFR4 kinase.
Compounds were serially diluted in 5% (v/v) DMSO, before being added to assay plates. The Enzyme (at 25 nM (final)) and Substrate (at 1.5 μM (final)) were added separately to the compound plates, in reaction buffer (comprising: 100 mM HEPES—pH 7.5, 0.004% Triton, 1 mM DTT (final), 10 mM MnCl2 (final), 30 μM ATP (final)) resulting in a final DMSO concentration in the reaction mix of 0.8%.
Assay plates were incubated at RT for 2 hours, before the reaction was stopped with the addition of buffer (comprising: 100 mM HEPES—pH7.5, 0.033% Brij-35, 0.22% Caliper Coating Reagent #3, 40 mM EDTA, 5% DMSO). Stopped assay plates were then read using the Caliper LabChip™ LC3000 (which uses microfludics to measure a shift in mobility between fluorescent labelled peptide and the FGFR4 kinase—phosphorylated form of this peptide). […]

Consider `COc1cc(CCc2cc(NC(=O)c3ccc(N4CCN(C)[C@@H](C)C4)cc3)[nH]n2)cc(OC)c1` [Example 1a, (S)—N-(3-(3,5-Dimethoxyphenethyl)-1H-pyrazol-5-yl)-4-(3,4-dimethylpiperazin-1-yl)benzamide], for which the IC50 in assay [1] was more than 10 µM. On to `COc1cc(CCc2cc(NC(=O)c3ccc(N4CCN(C)[C@H](C)C4)cc3)[nH]n2)cc(OC)c1` [Example 1b, (R)—N-(3-(3,5-Dimethoxyphenethyl)-1H-pyrazol-5-yl)-4-(3,4-dimethylpiperazin-1-yl)benzamide], for which the IC50 was 22 nM and 16 nM (2×) at FGFR4; 8.01 µM in assay [1].
